Measurements published in article PMC10548421, “Anticancer Potential of Diruthenium Complexes with Bridging Hydrocarbyl Ligands from Bioactive Alkynols” (Inorganic Chemistry, 2023).

Tests used:
[1] = system: A2780R cisplatin-resistant human ovarian carcinoma cell line; assay: MTT in vitro cytotoxicity, A2780R; format: cell-based; details: incubation 24 h, mean ± SD
Procedure: (§1) The cytotoxicity assessment was conducted on various human cancer cell lines, including A2780 ovarian carcinoma, A2780R cisplatin-resistant ovarian carcinoma, MCF-7 breast, HOS osteosarcoma, A549 epithelial lung, PANC-1 pancreatic, Caco-2 colorectal, PC-3 prostate adenocarcinoma, and HeLa cervical cell lines. Additionally, the assessment extended to a normal human fetal fibroblast cell line (MRC-5). Cells were obtained from ATCC collection and cultivated according to the producer’s instructions. Stock solutions of the compounds were prepared in DMF immediately before application, and diluted with H2O to achieve the final concentration of 0.1% v/v DMF.[99] The culture media were enriched with 10% fetal calf serum. Subsequently, the cells were exposed to the tested compounds, vehicle (0.1% v/v DMF) and Triton X-100 (1% v/v), during incubation. The conventional MTT assay was carried out following different incubation periods (Tables 5-6). The absorbance was measured at 570 nm by using a spectrophotometer (Infinite M200, Schoeller Instruments, Prague, Czech Republic). The obtained data are presented as the percentage of cell viability with 100% representing negative control treatment (0.1% v/v DMF) and 0% representing the positive control (Triton X-100). The half-maximal inhibitory concentrations (IC50) were determined from dose–response curves using GraphPad Prism 6 software (GraphPad Software, San Diego, USA).

[2] = system: MCF-7 breast adenocarcinoma cell line; assay: MTT in vitro cytotoxicity, MCF-7; format: cell-based, human; details: incubation 24 h, mean ± SD
Procedure: as §1

[3] = system: HOS human osteosarcoma cell line; assay: MTT in vitro cytotoxicity, HOS; format: cell-based; details: incubation 24 h, mean ± SD
Procedure: as §1

[4] = system: PANC-1 human pancreatic carcinoma cell line; assay: MTT in vitro cytotoxicity, PANC-1; format: cell-based; details: incubation 24 h, mean ± SD
Procedure: as §1

[5] = system: Caco-2 human colorectal adenocarcinoma cell line; assay: MTT in vitro cytotoxicity, Caco-2; format: cell-based; details: incubation 24 h, mean ± SD
Procedure: as §1, with “Additionally,” for “The cytotoxicity assessment was conducted on various human cancer cell lines, including A2780 ovarian carcinoma, A2780R cisplatin-resistant ovarian carcinoma, MCF-7 breast, HOS osteosarcoma, A549 epithelial lung, PANC-1 pancreatic, Caco-2 colorectal, PC-3 prostate adenocarcinoma, and HeLa cervical cell lines. Additionally,”

[6] = biological target: bovine serum albumin (BSA) (Bos taurus, UniProt P02769); assay: Interaction with BSA (MALDI-TOF MS); format: binding; details: BSA 30 μM, complex 1 mM, 48 h at 37 °C
Sequence of bovine serum albumin (BSA) (P02769 25-607): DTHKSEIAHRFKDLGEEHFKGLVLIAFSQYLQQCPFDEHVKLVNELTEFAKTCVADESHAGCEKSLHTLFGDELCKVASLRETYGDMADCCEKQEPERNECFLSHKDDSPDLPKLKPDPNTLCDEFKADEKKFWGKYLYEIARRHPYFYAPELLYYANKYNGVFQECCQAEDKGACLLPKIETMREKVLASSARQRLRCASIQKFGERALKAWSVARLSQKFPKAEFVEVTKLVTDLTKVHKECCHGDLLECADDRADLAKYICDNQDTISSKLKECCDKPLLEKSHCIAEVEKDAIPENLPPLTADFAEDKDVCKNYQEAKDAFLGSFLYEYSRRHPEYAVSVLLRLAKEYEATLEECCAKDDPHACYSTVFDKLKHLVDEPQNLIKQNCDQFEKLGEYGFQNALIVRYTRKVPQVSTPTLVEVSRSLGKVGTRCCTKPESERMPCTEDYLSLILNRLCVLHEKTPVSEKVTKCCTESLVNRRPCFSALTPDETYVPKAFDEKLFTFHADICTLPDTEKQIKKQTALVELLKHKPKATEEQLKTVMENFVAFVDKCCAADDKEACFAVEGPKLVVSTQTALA
Procedure: Bovine serum albumin (BSA, 30 μM in 50 mM NH4HCO3) was incubated with the selected complexes (3a or 3b, 1 mM) at 37 °C for 48 h. Each complex was preliminarily dissolved in 50 μL of methanol. Following the incubation, an aliquot of the protein was adsorbed by repeated aspiration and release (20 times, 10-μL volume) into a ZipTip-C4 pipet tip (Merck, Darmstadt, Germany) that had been pre-equilibrated in 0.1% trifluoroacetic acid (TFA), washed by the equilibrating solution, and eluted into 10 μL of 70% acetonitrile containing 0.1% TFA. The eluate was subsequently subjected to evaporation using a vacuum centrifuge, and the residue was dissolved in 3 μL of 0.1% TFA. A 1 μL aliquot of this solution was deposited on an MSP Big Anchor 96 target plate (Bruker Daltonik, Bremen, Germany), onto which 1 μL of the matrix solution (sinapinic acid, 12 mg/mL in 0.1% TFA and 50% acetonitrile) was immediately superimposed. The sample was then allowed to dry. Mass spectra were acquired using a Microflex LRF20 MALDI-TOF mass spectrometer operated in a linear positive ion mode and controlled using flexControl 3.4 software from Bruker Daltonik). Protein Standard II, from Bruker Daltonik, was used for external calibration. All spectra were subjected to processing by using flexAnalysis 3.4 software from Bruker Daltonik.

A2780 cells [7] = assay: Cell cycle analysis (flow cytometry, PI); format: cell-based, human; details: A2780, 4 μM, 24 h
Procedure: (§2) The A2780 ovarian carcinoma cell line was received from Merck (reference 93112519–1VL) and cultured at 37 °C in an environment with 5% CO2. The cultivation was carried out in complete cell culture medium (RPMI-1640 medium, Merck), which was supplemented with 10% fetal bovine serum (FBS, Merck), 1% L-glutamine (Merck) and 1% penicillin–streptomycin–neomycin (PSN, Merck). For the flow cytometry experiments, three independent duplicates were analyzed using a BD FACSVerse flow cytometer (Becton Dickinson, USA). At least 5 × 10^3 events were recorded for each sample. The same procedure was replicated for the experiments described below. Solutions of the complexes were formulated using the stock solutions (Section 5.1).
These studies were conducted on A2780 cells using the BD Cycletest Plus DNA kit (from Becton Dickinson, USA). Thus, cells were seeded in 96-well plates (10^4 cells/well) and treated with 4 μM complexes 3a and 3b for 24 h. Following the incubation period, cells underwent a series of procedural steps. Initially, they were rinsed using PBS (0.1 M, pH 7.4). […]

A2780 cells [8] = assay: Apoptosis, Annexin V/propidium iodide flow cytometry; format: cell-based, human; details: A2780, 4 μM, 24 h
Procedure: as §2
Apoptosis assay was performed using an Annexin V-FITC/PI commercial kit (V13242, Thermo Fisher Scientific, USA), while caspase 3/7 activation assay was performed with a CellEvent Caspase-3/7 Green Flow Cytometry Assay Kit (C10427, Thermo Fisher Scientific, USA). A2780 cells were seeded in 24-well plates at a density of 5 × 10^4 cells per well; after 24 h, the cells were exposed to 4 μM solution of the selected complex for 24 h. […] The supernatant was collected, cells were washed with PBS (0.1 M, pH 7.4), and trypsin was added (0.25% trypsin-EDTA, GibcoTM). Finally, complete cell culture medium was added to stop the trypsinization, and a final volume of 500 μL was divided into two 250 μL aliquots, following the protocol provided by the manufacturer. Samples were centrifuged, treated with the respective buffers, and then incubated in the dark at room temperature for 10 min (Annexin V-FITC/PI) or at 37 °C for 30 min (CellEventTM Caspase-3/7 Green Detection Reagent).

Compound	IC50 [1] [µM]	IC50 [2] [µM]	IC50 [3] [µM]	IC50 [4] [µM]	IC50 [5] [µM]	mass variation of adduct with respect to BSA [6] [Da]	effect on the cell cycle (in words) (A2780 cells [7])	proapoptotic effect, Annexin V/PI (in words) (A2780 cells [8])
CC12CCC3c4ccc(O)cc4CCC3C1CCC2=C=[CH][Ru]1(=[C]=O)([CH]2C=CC=C2)[C](=O)[Ru+]1(=[C]=O)[CH]1C=CC=C1.F[B-](F)(F)F (mixture of isomers) [3b, [Ru2Cp2(CO)3{μ–η^1:η^2-CH=C=(estradiolylidene)}]BF4]	4.6 ± 1.3	11.6 ± 1.5	12.6 ± 0.5	19.8 ± 2.3	36 ± 2.7	483	strong depression of the cell number in the synthetic (S) phase and second gap and mitotic phases (G2/M)	much less effective than that of cisplatin
F[B-](F)(F)F.O=[C]=[Ru+]1([CH]2C=CC=C2)[C](=O)[Ru]1(=[C]=O)([CH]=C=C1CCCC1)[CH]1C=CC=C1 (stereo not shown) [3a, [Ru2Cp2(CO)3{μ–η^1:η^2-CH=C=(cyclopentylidene)}]BF4]	6.4 ± 1.9	16.2 ± 1.7	14.6 ± 0.5	28.4 ± 3.9	> 50	3434	strong depression of the cell number in the synthetic (S) phase and second gap and mitotic phases (G2/M)	much less effective than that of cisplatin
